Experimental data from article PMC5848165 (Toxins, 2018).
“Also recorded” adds a separate entry of the source. Residues, ends and D or L forms follow the SMILES beside them.

What was measured:
hNav1.7 = target: T1, hNav1.7 (Homo sapiens, UniProt Q15858); assay: Whole-cell patch clamp, WT Nav1.7 in HEK293 cells; format: cell-based
T1 construct: expressed in transfected cells; host or cells: HEK293 (HEK293T) cells, transient
Excerpt: (§1) Nine sodium channel subtypes have been identified and classified as TTX-S (Nav1.1–Nav1.4, Nav1.6, and Nav1.7) or TTX-R types (Nav1.5, Nav1.8, and Nav1.9). […] However, the subtype selectivity of JZTX-34 on the subtype of sodium channel is still unknown. In this work, effects of JZTX-34 on VGSC subtypes (Nav1.1–Nav1.8) were examined. Nav1.1–Nav1.7 were transfected into HEK293 cells and Nav1.8 currents were expressed in ND cells. Inward sodium currents were elicited by a 50 ms depolarizing potential to −10 mV from a holding potential of −80 mV every 5 s. […] No effects on other sodium channel subtypes were found (Nav1.1, Nav1.2, Nav1.4–Nav1.6, and Nav1.8) (Figure S2).
Figure 2 Selectivity of JZTX-34 on sodium channel subtypes. All inward sodium channels were elicited by a 50 ms depolarizing potential to −10 mV from a holding potential of −80 mV every 5 s. One μM JZTX-34 was added to rNav1.3. (A) hNav1.7. (B,C) Dose-dependent inhibition of JZTX-34 on rNav1, rNav3, and hNav1.7 (n = 5). […]
(§2) The HEK293T cells were maintained in standard culture conditions (5% CO2 and 37 °C). […] After culturing for 36–72 h, cells with obvious green fluorescence were selected for sodium currents recordings the internal solution for sodium currents recording that contained (in mM) 140 CsF, 5 NaCl, 10 HEPES, 3 Na2-ATP, and 10 EGTA. […]
(§3) Sodium currents were recorded from DRG, HEK293, and ND cells by the whole-cell patch-clamp technique at 25 °C. […] Experiments date were acquired from whole-cell Axon 700B patch clamp amplifier (Molecular Devices, Sunnyvale, CA, USA) and analyzed by the program Clampfit10.0 (Molecular Devices, Sunnyvale, CA, USA) and Sigmaplot. […]
Data from Axon 700B patch clamp were analyzed by Clampfit10.0 (Molecular Devices, Sunnyvale, CA, USA). […] The G-V curves were obtained by calculating the conductance (G) at each voltage (V) using the equation G = I/(V1 − Vrev), with Vrev being the reversal potential determined for each cell individually. […] All the results from patch clamp and animal models are expressed as means ± standard error of the mean (SEM). […]

Nav1.5 = assay: Whole-cell patch clamp, WT Nav1.5 in HEK293 cells; format: cell-based, rat; conditions: 1 µM, −10 mV from −80 mV
Excerpt: as §1, with “S2). […]” for “S2).”
as §2, §3

T1 sequence (Q07699 19-218): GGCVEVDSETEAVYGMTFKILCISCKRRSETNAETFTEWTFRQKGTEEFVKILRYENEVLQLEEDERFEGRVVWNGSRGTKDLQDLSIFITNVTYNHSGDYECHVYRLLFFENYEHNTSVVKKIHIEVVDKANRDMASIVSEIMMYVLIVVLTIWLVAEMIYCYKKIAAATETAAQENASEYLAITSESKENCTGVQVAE
T1 sequence (Q15858 other isoform, or with tags, fused parts or gaps): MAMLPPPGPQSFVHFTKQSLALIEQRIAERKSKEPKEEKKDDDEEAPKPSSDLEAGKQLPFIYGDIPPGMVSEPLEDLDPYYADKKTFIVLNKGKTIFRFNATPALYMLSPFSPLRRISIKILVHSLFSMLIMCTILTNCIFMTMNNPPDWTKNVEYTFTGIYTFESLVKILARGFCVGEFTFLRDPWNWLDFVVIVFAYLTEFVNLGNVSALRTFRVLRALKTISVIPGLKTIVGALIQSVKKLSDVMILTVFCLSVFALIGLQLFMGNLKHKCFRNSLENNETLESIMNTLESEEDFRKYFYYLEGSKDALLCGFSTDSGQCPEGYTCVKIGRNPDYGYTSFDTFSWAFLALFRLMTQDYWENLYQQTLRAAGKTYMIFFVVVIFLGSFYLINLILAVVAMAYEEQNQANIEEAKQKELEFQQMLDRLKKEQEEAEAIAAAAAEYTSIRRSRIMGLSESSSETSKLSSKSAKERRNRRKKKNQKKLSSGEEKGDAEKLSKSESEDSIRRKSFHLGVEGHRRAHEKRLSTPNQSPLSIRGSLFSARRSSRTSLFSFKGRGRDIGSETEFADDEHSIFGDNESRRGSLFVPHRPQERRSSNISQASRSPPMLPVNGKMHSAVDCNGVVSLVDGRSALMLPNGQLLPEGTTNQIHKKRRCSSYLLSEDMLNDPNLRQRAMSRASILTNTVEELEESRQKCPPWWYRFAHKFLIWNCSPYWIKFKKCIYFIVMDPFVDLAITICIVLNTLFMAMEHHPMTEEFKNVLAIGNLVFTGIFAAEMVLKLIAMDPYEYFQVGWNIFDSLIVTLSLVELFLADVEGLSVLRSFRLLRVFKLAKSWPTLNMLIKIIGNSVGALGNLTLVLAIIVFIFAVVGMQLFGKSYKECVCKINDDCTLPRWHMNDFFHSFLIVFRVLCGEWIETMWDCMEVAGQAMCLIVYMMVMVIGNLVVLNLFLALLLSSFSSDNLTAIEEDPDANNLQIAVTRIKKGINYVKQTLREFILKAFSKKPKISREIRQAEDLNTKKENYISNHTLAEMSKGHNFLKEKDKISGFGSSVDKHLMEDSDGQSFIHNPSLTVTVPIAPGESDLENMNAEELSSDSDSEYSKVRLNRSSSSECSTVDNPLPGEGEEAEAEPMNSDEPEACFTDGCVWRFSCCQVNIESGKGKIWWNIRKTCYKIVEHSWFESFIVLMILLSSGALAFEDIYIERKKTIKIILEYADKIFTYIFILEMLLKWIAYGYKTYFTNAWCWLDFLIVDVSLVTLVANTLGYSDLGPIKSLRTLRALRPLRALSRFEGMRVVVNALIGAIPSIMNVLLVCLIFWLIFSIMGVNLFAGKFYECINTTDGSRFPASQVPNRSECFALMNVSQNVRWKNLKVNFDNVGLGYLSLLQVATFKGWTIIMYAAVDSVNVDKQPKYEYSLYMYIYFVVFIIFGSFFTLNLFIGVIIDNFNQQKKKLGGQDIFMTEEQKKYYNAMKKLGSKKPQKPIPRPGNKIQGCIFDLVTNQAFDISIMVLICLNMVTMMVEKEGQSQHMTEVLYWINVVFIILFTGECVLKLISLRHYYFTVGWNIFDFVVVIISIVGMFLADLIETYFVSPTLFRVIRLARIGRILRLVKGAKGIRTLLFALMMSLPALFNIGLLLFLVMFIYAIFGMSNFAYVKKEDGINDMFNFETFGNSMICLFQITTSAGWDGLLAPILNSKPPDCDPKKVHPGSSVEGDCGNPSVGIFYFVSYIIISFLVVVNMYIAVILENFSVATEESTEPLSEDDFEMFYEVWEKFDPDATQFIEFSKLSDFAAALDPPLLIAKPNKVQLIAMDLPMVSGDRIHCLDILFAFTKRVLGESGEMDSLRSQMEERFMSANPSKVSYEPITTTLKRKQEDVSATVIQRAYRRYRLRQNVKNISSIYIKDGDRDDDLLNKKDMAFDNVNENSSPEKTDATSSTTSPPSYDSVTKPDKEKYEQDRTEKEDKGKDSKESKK

CC(C)C[C@@H]1NC(=O)[C@H](Cc2c[nH]c3ccccc23)NC(=O)[C@H](CCC(=O)O)NC(=O)[C@H](CCCNC(=N)N)NC(=O)[C@@H](NC(=O)[C@H](C)N)CSSC[C@@H]2NC(=O)[C@@H]3CSSC[C@@H](C(=O)N[C@H](C(=O)N[C@@H](Cc4c[nH]c5ccccc45)C(=O)N[C@@H](CC(=O)O)C(=O)N[C@@H](Cc4c[nH]c5ccccc45)C(=O)N[C@H](C(=O)N[C@H](C(=O)O)C(C)C)[C@@H](C)O)C(C)C)NC(=O)[C@H](Cc4c[nH]cn4)NC(=O)[C@H](Cc4ccc(O)cc4)NC(=O)[C@@H]4CCCN4C(=O)[C@H](Cc4c[nH]c5ccccc45)NC(=O)[C@H](CCCCN)NC(=O)[C@H](CCCCN)NC(=O)[C@H](CCCNC(=N)N)NC(=O)[C@H](CSSC[C@H](NC(=O)CNC(=O)CNC1=O)C(=O)N[C@@H](CO)C(=O)N[C@@H](CCCCN)C(=O)N[C@@H](CC(=O)O)C(=O)N[C@@H](C)C(=O)N[C@@H](CC(=O)O)C(=O)N3)NC(=O)[C@H](CCC(=O)O)NC(=O)[C@H](CC(C)C)NC(=O)[C@H](Cc1c[nH]cn1)NC(=O)[C@H](C)NC2=O [JZTX-34, Jingzhaotoxin-34] (HELM PEPTIDE1{A.C.R.E.W.L.G.G.C.S.K.D.A.D.C.C.A.H.L.E.C.R.K.K.W.P.Y.H.C.V.W.D.W.T.V}$PEPTIDE1,PEPTIDE1,2:R3-16:R3|PEPTIDE1,PEPTIDE1,9:R3-21:R3|PEPTIDE1,PEPTIDE1,15:R3-29:R3$$$V2.0; N-terminus and C-terminus assumed)
inhibition at 1 µM (hNav1.7; 1 µM, mutant comparison experiment (Figure 4), read-out: inhibition of WT Nav1.7 currents): 54.3 ± 5.2%
reduction of Nav1.7 currents (hNav1.7; 1 µM, −10 mV from −80 mV holding, mean ± S.E., subtype selectivity experiment (Figure 2)): 54.6 ± 5.3%
IC50 (hNav1.7; −10 mV from −80 mV holding, Hill fit, n = 5): 610 nM
effect on Nav1.5 currents (Nav1.5): No effects; also recorded: resistant
